Assay results reported in paper PMC13286198 (PLOS One, 2026).

Experiment: Pharmacokinetic interaction study in rats, plasma by UPLC-MS/MS
Assay type: in vivo, Sprague–Dawley rats
Conditions: oral, n = 6
Description: The sample size for each group of rats was calculated using the resource equation method [27]. The doses were chosen by converting the clinically recommended doses for patients to animal doses. […] The value of Km represents the equivalent dose ratio between humans and rats, calculated based on body surface area. […] The following groups received control solvents corresponding to each drug for a duration of seven consecutive days. […] Conversely, remaining groups were treated with their respective drugs at the aforementioned doses for seven consecutive days. […] Blood samples were centrifuged at 3,500 rpm for 10 min, and the supernatant was collected and stored at -80°C until processing for UPLC-MS/MS. The induction of anesthesia was performed using 5% isoflurane, and the concentration was maintained at 2% throughout the blood collection process. The blood was extracted from the eye venous plexus by well-trained professionals to minimize the animal's suffering. Following blood collection, rat liver, intestinal and kidney tissues were collected for molecular analysis on the seventh day post-treatment with the corresponding drugs for each group. Before euthanizing the animals, they were required to fast for at least 12 hours. Using sodium pentobarbital (2 g/kg) to put the animals into a deep state of anesthesia, Collect the required tissue samples and the rats were euthanized by cervical dislocation. […] The temperature maintained at 40 by gradient elution. […] Aliquots (8 μL) of these redissolved samples were used into the UPLC-MS/MS system for subsequent analysis. […] Analysis was conducted in a non-compartmental model. The metrics such as the area under the concentration-time curve (AUC), maximum plasma concentration (Cmax), time to reach Cmax (Tmax), elimination half-life (t1/2), plasma clearance volume per time unit (CLz/F), apparent volume of distribution (Vz), and mean residence time (MRT) were expressed as mean ± standard deviation (SD). Comparisons corresponding test groups were conducted using SPSS 25.0 software (SPSS Inc., Chicago, IL, USA).

SMILES | Cmax ((control of the henagliflozin study)) | Cmax (henagliflozin 1 mg/kg after telmisartan 8 mg/kg for 7 days) | Vz (henagliflozin 1 mg/kg alone)
CCCc1nc2c(C)cc(-c3nc4ccccc4n3C)cc2n1Cc1ccc(-c2ccccc2C(=O)O)cc1 [telmisartan] | 160.33 ± 24.57 ng/mL |  | 
CCOc1ccc(Cc2cc([C@@]34OC[C@@](CO)(O3)[C@@H](O)[C@H](O)[C@H]4O)ccc2Cl)cc1F [henagliflozin] |  | 356.83 ± 59.55 ng/mL | 3.87 ± 1.49 L/kg
